In patent publication US20180141962A1, “AZACARBAZOLE BTK INHIBITORS” (MERCK SHARP & DOHME CORP., priority 2015, published 2018):

biological target: T1, BTK enzyme (recombinant full-length BTK, hBTK) (Homo sapiens, UniProt Q06187); test: Btk enzyme activity assay, LANCE TR-FRET; format: biochemical; details: 50 pM hBTK, 2 μM biotin-A5-peptide, 25 μM ATP; 60 minute compound & enzyme incubation; 120 minutes reaction; read-out: BTK binding potency IC50
T1 construct: recombinant protein from baculovirus-transfected Sf9 cells: full-length BTK, 6HIS-tag cleaved; 6HIS (cleaved yes); made in house; host or cells: baculovirus-transfected Sf9 cells
Protocol: Btk Enzyme Activity Assay Methods
BTK enzymatic activity was determined with the LANCE (Lanthanide Chelate Excite) TR-FRET (lime-resolved fluorescence resonance energy transfer) assay. […] Phosphorylation reactions were allowed to proceed for 120 minutes. […] After 60 minutes incubation with detection reagents, reaction plates were read on a PerkinElmer EnVision plate reader using standard TR-FRET protocol. Briefly, excitation of donor molecules (Eu-chelate:anti-phospho-antibody) with a laser light source at 337 nm produces energy that can be transferred to Dylight-650 acceptor molecules if this donor:acceptor pair is within close proximity. Fluorescence intensity at both 665 nm (acceptor) and 615 nm (donor) are measured and a TR-FRET ratio calculated for each well (acceptor intensity/donor intensity). IC50 values were determined by 4 parameter robust fit of TR-FRET ratio values vs. (Log10) compound concentrations.

T1 sequence (Q06187 whole entry): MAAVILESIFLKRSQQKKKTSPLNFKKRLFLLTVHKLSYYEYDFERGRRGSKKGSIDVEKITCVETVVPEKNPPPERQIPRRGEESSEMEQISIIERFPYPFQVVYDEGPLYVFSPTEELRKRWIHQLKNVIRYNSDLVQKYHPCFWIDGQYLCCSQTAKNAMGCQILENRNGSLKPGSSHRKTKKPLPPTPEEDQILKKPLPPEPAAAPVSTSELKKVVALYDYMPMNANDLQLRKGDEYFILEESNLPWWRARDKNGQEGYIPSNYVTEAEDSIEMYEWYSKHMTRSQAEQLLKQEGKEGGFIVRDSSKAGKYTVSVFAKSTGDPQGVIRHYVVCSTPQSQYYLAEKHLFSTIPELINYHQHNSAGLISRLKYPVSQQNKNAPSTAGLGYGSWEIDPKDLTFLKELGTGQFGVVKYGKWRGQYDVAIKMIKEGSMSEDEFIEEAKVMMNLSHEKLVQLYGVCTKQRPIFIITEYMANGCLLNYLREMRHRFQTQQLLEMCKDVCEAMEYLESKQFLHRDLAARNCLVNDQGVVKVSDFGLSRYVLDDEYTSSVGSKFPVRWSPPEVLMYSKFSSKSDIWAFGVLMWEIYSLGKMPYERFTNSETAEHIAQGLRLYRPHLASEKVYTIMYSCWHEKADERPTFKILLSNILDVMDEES

Compound | IC50 [nM]
CC(C)c1ccc(N2CCCC3(CCCN(c4ncc(C(N)=O)c5[nH]c6ccccc6c45)C3)C2=O)cc1 (stereo not drawn) [Example 5, 1-{8-[4-(1-methylethyl)phenyl]-7-oxo-2,8-diazaspiro[5.5]undec-2-yl}-5H-pyrido[4,3-b]indole-4-carboxamide] | 492
CN1CCCC2(CCCN(c3ncc(C(N)=O)c4[nH]c5ccccc5c34)C2)C1=O (stereo not drawn) [Example 35, 1-(8-methyl-7-oxo-2,8-diazaspiro[5.5]undec-2-yl)-5H-pyrido[4,3-b]indole-4-carboxamide] | 55.2
CC(C)(C)OC(=O)N1CC2(CCCN(c3ncc(C(N)=O)c4[nH]c5ccccc5c34)C2)C1 [Example 28, tert-butyl 6-(4-carbamoyl-5H-pyrido[4,3-b]indol-1-yl)-2,6-diazaspiro[3.5]nonane-2-carboxylate] | 579
CC(C)(C)c1ccc(N2CCC3(CCCN(c4ncc(C(N)=O)c5[nH]c6ccccc6c45)C3)C2=O)cc1 (stereo not drawn) [Example 36, 1-[2-(4-tert-butylphenyl)-1-oxo-2,7-diazaspiro[4.5]dec-7-yl]-5H-pyrido[4,3-b]indole-4-carboxamide] | 9530
CN1CC(CO)C2(CCCN(c3ncc(C(N)=O)c4[nH]c5ccccc5c34)C2)C1=O (single isomer, unassigned) [Example 91, cis-1-(4-(hydroxymethyl)-2-methyl-1-oxo-2,7-diazaspiro[4.5]decan-7-yl)-5H-pyrido[4,3-b]indole-4-carboxamide] | 1000
NC(=O)c1cnc(N2CCCC3(C2)NCCNC3=O)c2c1[nH]c1ccccc12 (stereo not drawn) [Example 87, 1-(5-oxo-1,4,8-triazaspiro[5.5]undecan-8-yl)-5H-pyrido[4,3-b]indole-4-carboxamide] | 82.8
NC(=O)c1cnc(N2CCC[C@@]3(C2)C(=O)NC[C@@H]3c2ccccc2)c2c1[nH]c1ccccc12 (single isomer, unassigned) [Example 88, 1-[(trans)-1-oxo-4-phenyl-2,7-diazaspiro[4.5]dec-7-yl]-5H-pyrido[4,3-b]indole-4-carboxamide] | 77.8
NC(=O)c1cnc(N2CCC3(CCNC3=O)CC2)c2c1[nH]c1ccccc12 [Example 11, 1-(1-oxo-2,8-diazaspiro[4.5]dec-8-yl)-5H-pyrido[4,3-b]indole-4-carboxamide] | 31.1
NC(=O)c1cnc(N2CCC[C@@]3(CCCN(c4ccc(F)cc4)C3=O)C2)c2c1[nH]c1ccccc12 [Example 1, (R)-1-(8-(4-fluorophenyl)-7-oxo-2,8-diazaspiro[5.5]undecan-2-yl)-5H-pyrido[4,3-b]indole-4-carboxamide] | 149
CC(=O)N1CC2(CCN(c3ncc(C(N)=O)c4[nH]c5ccccc5c34)CC2)C1 [Example 20, 1-(2-acetyl-2,7-diazaspiro[3.5]non-7-yl)-5H-pyrido[4,3-b]indole-4-carboxamide] | 58.6
CC(C)(C)OC(=O)N1CCC2(CCN(c3ncc(C(N)=O)c4[nH]c5ccccc5c34)CC2)C1 [Example 13, tert-butyl 8-(4-carbamoyl-5H-pyrido[4,3-b]indol-1-yl)-2,8-diazaspiro[4.5]decane-2-carboxylate] | 163
COC(=O)c1ccc2c(c1)[nH]c1c(C(N)=O)cnc(N3CCCC4(CCNC4=O)C3)c12 (stereo not drawn) [Example 83, Methyl 4-carbamoyl-1-(1-oxo-2,7-diazaspiro[4.5]decan-7-yl)-5H-pyrido[4,3-b]indole-7-carboxylate] | 57.2
CC(C)(C)c1ccc(C(=O)N2CCCC3(CCCCN3c3ncc(C(N)=O)c4[nH]c5ccccc5c34)C2)cc1 (stereo not drawn) [Example 25, 1-{8-[(4-tert-butylphenyl)carbonyl]-1,8-diazaspiro[5.5]undec-1-yl}-5H-pyrido[4,3-b]indole-4-carboxamide] | 536
CN1C[C@@H](CO)[C@@]2(CCCN(c3ncc(C(N)=O)c4[nH]c5ccccc5c34)C2)C1=O (racemic) [Example 92, trans-1-(4-(hydroxymethyl)-2-methyl-1-oxo-2,7-diazaspiro[4.5]decan-7-yl)-5H-pyrido[4,3-b]indole-4-carboxamide] | 64
NC(=O)c1cnc(N2CCC[C@]3(C2)C(=O)NC[C@H]3O)c2c1[nH]c1ccccc12 (stereo in doubt) [Example 17, 1-[(4S,5R)-4-hydroxy-1-oxo-2,7-diazaspiro[4.5]dec-7-yl]-5H-pyrido[4,3-b]indole-4-carboxamide] | 538

Compounds with a lower IC50, results first:

IC50 [nM] | Compound
3 | COC(=O)N1CCC(c2ccc3c(c2)[nH]c2c(C(N)=O)cnc(N4CCCC5(CCNC5=O)C4)c23)CC1 (stereo not drawn) [Example 56, methyl 4-[4-carbamoyl-1-(1-oxo-2,7-diazaspiro[4.5]dec-7-yl)-5H-pyrido[4,3-b]indol-7-yl]piperidine-1-carboxylate]
1.4 | CNC(=O)N1CCC(c2ccc3c(c2)[nH]c2c(C(N)=O)cnc(N4CCCC5(CCNC5=O)C4)c23)CC1 (stereo not drawn) [Example 53, 7-[1-(methylcarbamoyl)piperidin-4-yl]-1-(1-oxo-2,7-diazaspiro[4.5]dec-7-yl)-5H-pyrido[4,3-b]indole-4-carboxamide]
1.4 | NC(=O)c1cnc(N2CCCC3(CCNC3=O)C2)c2c1[nH]c1cc(C3CCNCC3)ccc12 (stereo not drawn) [Example 42, 1-(1-oxo-2,7-diazaspiro[4.5]decan-7-yl)-7-(piperidin-4-yl)-5H-pyrido[4,3-b]indole-4-carboxamide]
0.96 | CC(C)N1CCC(c2ccc3c(c2)[nH]c2c(C(N)=O)cnc(N4CCCC5(CCNC5=O)C4)c23)CC1 (stereo not drawn) [Example 52, 7-[1-(1-methylethyl)piperidin-4-yl]-1-(1-oxo-2,7-diazaspiro[4.5]dec-7-yl)-5H-pyrido[4,3-b]indole-4-carboxamide]
12.6 | NC(=O)c1cnc(N2CCC[C@@]3(CCCN(c4ccc(F)cc4)C3=O)C2)c2c1[nH]c1ccc(C(=O)O)cc12 [Example 8, 4-carbamoyl-1-[(6R)-8-(4-fluorophenyl)-7-oxo-2,8-diazaspiro[5.5]undec-2-yl]-5H-pyrido[4,3-b]indole-8-carboxylic acid]
2.9 | CN1CC[C@@]2(CCCN(c3ncc(C(N)=O)c4[nH]c5cc(C6CCC(CC(C)(C)O)CC6)ccc5c34)C2)C1=O (stereo partly drawn) [Example 82, 7-[4-(2-hydroxy-2-methylpropyl)cyclohexyl]-1-[(5R)-2-methyl-1-oxo-2,7-diazaspiro[4.5]dec-7-yl]-5H-pyrido[4,3-b]indole-4-carboxamide]
9.5 | COc1cc(-c2ccc3c(c2)[nH]c2c(C(N)=O)cnc(N4CCC[C@@]5(CCN(C)C5=O)C4)c23)ccn1 [Example 75, 7-(2-methoxypyridin-4-yl)-1-[(5R)-2-methyl-1-oxo-2,7-diazaspiro[4.5]dec-7-yl]-5H-pyrido[4,3-b]indole-4-carboxamide]
17 | NC(=O)c1cnc(N2CCCC3(CCCN(c4ccc(F)cc4)C3=O)C2)c2c1[nH]c1ccccc12 (stereo not drawn) [Example 4, 1-[8-(4-fluorophenyl)-7-oxo-2,8-diazaspiro[5.5]undec-2-yl]-5H-pyrido[4,3-b]indole-4-carboxamide]
1.3 | CN1CCC(c2ccc3c(c2)[nH]c2c(C(N)=O)cnc(N4CCCC5(CCNC5=O)C4)c23)CC1 (stereo not drawn) [Example 55, 7-(1-methylpiperidin-4-yl)-1-(1-oxo-2,7-diazaspiro[4.5]dec-7-yl)-5H-pyrido[4,3-b]indole-4-carboxamide]
7.4 | CC(C)(C)OC(=O)N1CCC(c2ccc3c(c2)[nH]c2c(C(N)=O)cnc(N4CCCC5(CCNC5=O)C4)c23)CC1 (stereo not drawn) [Example 43, tert-butyl 4-[4-carbamoyl-1-(1-oxo-2,7-diazaspiro[4.5]dec-7-yl)-5H-pyrido[4,3-b]indol-7-yl]piperidine-1-carboxylate]
16.5 | NC(=O)c1cnc(N2CCCC3(CCNC3=O)C2)c2c1[nH]c1ccc(C(O)CO)cc12 (stereo not drawn) [Example 65, 8-(1,2-dihydroxyethyl)-1-(1-oxo-2,7-diazaspiro[4.5]dec-7-yl)-5H-pyrido[4,3-b]indole-4-carboxamide]
5.4 | NC(=O)c1cnc(N2CCC[C@@]3(CCNC3=O)C2)c2c1[nH]c1cc(-c3cc[nH]c(=O)c3)ccc12 [Example 70, 1-[(5R)-1-oxo-2,7-diazaspiro[4.5]dec-7-yl]-7-(2-oxo-1,2-dihydropyridin-4-yl)-5H-pyrido[4,3-b]indole-4-carboxamide]
